# Measurements: ChEMBL document CHEMBL3351431, “Synthesis and evaluation of C2-carbon-linked heterocyclic-5-hydroxy-6-oxo-dihydropyrimidine-4-carboxamides as HIV-1 integrase inhibitors” (Bioorg Med Chem Lett, 2015)
# Columns and labels:
# [1] = test system: Human immunodeficiency virus 1; test: Antiviral activity against HIV1 infected in cell culture in presence of 45 mg/ml human serum albumin and 10% FBS; format: functional, organism-based
# [2] = test system: Human immunodeficiency virus 1; test: Antiviral activity against HIV1 infected in cell culture in presence of 10% FBS; format: functional, organism-based
# [3] = target: Human immunodeficiency virus type 1 integrase (Human immunodeficiency virus 1, UniProt Q7ZJM1); test: Inhibition of HIV-1 integrase strand transfer activity
# [4] = Half life in Sprague-Dawley rat at 1 mg/kg, iv; format: ADME, organism-based; set-up: dose 1 mg/kg, route intravenous; details: in vivo
# [5] = Volume of distribution at steady state in Sprague-Dawley rat at 1 mg/kg, iv; format: ADME, organism-based; set-up: dose 1 mg/kg, route intravenous; details: in vivo, read-out: Vdss
# [6] = Clearance in Sprague-Dawley rat at 1 mg/kg, iv; format: ADME, organism-based; set-up: dose 1 mg/kg, route intravenous; details: in vivo
# [7] = Oral bioavailability in Sprague-Dawley rat at 5 mg/kg; format: ADME, organism-based; details: in vivo
# [8] = AUC in Sprague-Dawley rat at 5 mg/kg, po; format: ADME, organism-based; set-up: dose 5 mg/kg, route oral; details: plasma
# [9] = Cmax in Sprague-Dawley rat at 5 mg/kg, po; format: ADME, organism-based; set-up: dose 5 mg/kg, route oral; details: in vivo
# [10] = Tmax in Sprague-Dawley rat at 5 mg/kg, po; format: ADME, organism-based; set-up: dose 5 mg/kg, route oral; details: in vivo
# Chain of Human immunodeficiency virus type 1 integrase (Q7ZJM1 whole entry): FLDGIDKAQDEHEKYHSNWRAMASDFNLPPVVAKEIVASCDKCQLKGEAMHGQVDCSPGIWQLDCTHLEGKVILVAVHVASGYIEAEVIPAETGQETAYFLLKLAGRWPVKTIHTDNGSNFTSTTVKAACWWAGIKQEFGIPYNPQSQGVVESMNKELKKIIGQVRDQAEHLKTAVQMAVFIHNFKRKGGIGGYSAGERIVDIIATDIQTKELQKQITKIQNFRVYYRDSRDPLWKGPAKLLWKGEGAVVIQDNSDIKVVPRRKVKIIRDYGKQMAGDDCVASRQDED
Compound,EC50 [1] [nM],EC50 [2] [nM],IC50 [3] [nM],half-life [4] [min],Vd [5] [L/kg],clearance [6] [mL/min/kg],bioavailability [7] [%],AUC [8] [µM·h],Cmax [9] [µM],Tmax [10] [min]
Cn1c(-c2ccco2)nc(C(=O)NCc2ccc(F)cc2)c(O)c1=O,14500,424,21,,,,,,,
Cn1c(C2=CCOC2)nc(C(=O)NCc2ccc(F)cc2)c(O)c1=O,1780,206,19,,,,,,,
Cn1c(C2CCOCC2)nc(C(=O)NCc2ccc(F)cc2)c(O)c1=O,28,6,5,34.8,0.12,2.6,,,,
Cn1c(C2CCOCC2)nc(C(=O)NCc2ccc(F)cc2S(C)(=O)=O)c(O)c1=O,13,6,8,34.8,0.13,3.9,,,,
CN(C)S(=O)(=O)c1cc(F)ccc1CNC(=O)c1nc(C2CCOCC2)n(C)c(=O)c1O,15,4,12,,,,,,,
Cn1c(C2CCOCC2)nc(C(=O)NCc2ccc(F)cc2-n2cncn2)c(O)c1=O,18,10,6,,,,,,,
Cn1ncnc1-c1cc(F)ccc1CNC(=O)c1nc(C2CCOCC2)n(C)c(=O)c1O,7,4,9,,,,,,,
Cn1c(C2CCOC2)nc(C(=O)NCc2ccc(F)cc2)c(O)c1=O (racemic),60,9,4,97.8,0.14,4.9,68,33.9,10.5,40.2
Cn1c(C2COCC2O)nc(C(=O)NCc2ccc(F)cc2)c(O)c1=O (racemic),126,48,6,,,,,,,
CSC1COCC1c1nc(C(=O)NCc2ccc(F)cc2)c(O)c(=O)n1C (racemic),33,7,3,64.8,0.15,3.6,67,39.5,8.04,100
Cn1c(C2(C)CCCO2)nc(C(=O)NCc2ccc(F)cc2)c(O)c1=O (racemic),120,10,5,,,,,,,
Cn1c(C2(C)CCCS2)nc(C(=O)NCc2ccc(F)cc2)c(O)c1=O (racemic),153,15,5,,,,,,,
Cn1c(C2CCCCO2)nc(C(=O)NCc2ccc(F)cc2)c(O)c1=O (racemic),301,49,10,,,,,,,

# More lines, now with the values ahead:
EC50 [1] [nM],EC50 [2] [nM],IC50 [3] [nM],half-life [4] [min],Vd [5] [L/kg],clearance [6] [mL/min/kg],bioavailability [7] [%],AUC [8] [µM·h],Cmax [9] [µM],Tmax [10] [min],Compound
11,4,11,,,,,,,,Cn1c(C2CCOCC2)nc(C(=O)NCc2ccc(F)cc2N2CCCCS2(=O)=O)c(O)c1=O
14,9,8,,,,,,,,Cc1ncnn1-c1cc(F)ccc1CNC(=O)c1nc(C2CCOCC2)n(C)c(=O)c1O
18,8,13,,,,,,,,Cc1cnnn1-c1cc(F)ccc1CNC(=O)c1nc(C2CCOCC2)n(C)c(=O)c1O
7,2,17,13.2,0.61,41,,,,,Cn1c(C2CCOCC2)nc(C(=O)NCc2ccc(F)cc2N2CCN(C(C)(C)C)S2(=O)=O)c(O)c1=O
7,2,6,,,,,,,,CN1C(C)(C)CN(c2cc(F)ccc2CNC(=O)c2nc(C3CCOCC3)n(C)c(=O)c2O)S1(=O)=O
27,28,18,,,,,,,,Cn1cnnc1-c1cc(F)ccc1CNC(=O)c1nc(C2CCOC2)n(C)c(=O)c1O (racemic)
33,14,9,,,,,,,,Cn1c(C2CCOC2)nc(C(=O)NCc2ccc(F)cc2S(C)(=O)=O)c(O)c1=O (racemic)
25,4,10,,,,,,,,CN(C)S(=O)(=O)c1cc(F)ccc1CNC(=O)c1nc(C2CCOC2)n(C)c(=O)c1O (racemic)
19,5,9,32.4,0.2,6,60,12.3,3.51,37.8,Cn1c(C2CCOC2)nc(C(=O)NCc2ccc(F)cc2N2CCCCS2(=O)=O)c(O)c1=O (racemic)
18,7,4,25.2,0.98,47,,,,,Cn1c(C2CCOC2)nc(C(=O)NCc2ccc(F)cc2-n2cncn2)c(O)c1=O (racemic)
18,14,12,13.8,0.76,37,,,,,Cc1ncnn1-c1cc(F)ccc1CNC(=O)c1nc(C2CCOC2)n(C)c(=O)c1O (racemic)
28,13,10,,,,,,,,Cc1cnnn1-c1cc(F)ccc1CNC(=O)c1nc(C2CCOC2)n(C)c(=O)c1O (racemic)
11,5,6,30,0.36,12,,,,,Cn1ncnc1-c1cc(F)ccc1CNC(=O)c1nc(C2CCOC2)n(C)c(=O)c1O (racemic)
22,2,16,14.4,0.36,31,,,,,Cn1c(C2CCOC2)nc(C(=O)NCc2ccc(F)cc2N2CCN(C(C)(C)C)S2(=O)=O)c(O)c1=O (racemic)
22,2,10,,,,,,,,CN1C(C)(C)CN(c2cc(F)ccc2CNC(=O)c2nc(C3CCOC3)n(C)c(=O)c2O)S1(=O)=O (racemic)
30,7,6,,,,,,,,CN1CCN(c2cc(F)ccc2CNC(=O)c2nc(C3CCOC3)n(C)c(=O)c2O)C1=O (racemic)
27,5,3,27.6,0.44,15,,,,,COCCN1CCN(c2cc(F)ccc2CNC(=O)c2nc(C3CCOC3)n(C)c(=O)c2O)C1=O (racemic)
